Source: patent US20210161997A1, “TREATING DISEASES VIA TARGETED MODULATION OF GENE SIGNALING NETWORKS” (Camp4 Therapeutics Corporation, priority 2018, published 2021)

Legend:
Type in all cases: cell-based
NOTCH2 = test: RNA-seq of NOTCH2 expression in compound-treated primary human hepatocytes; details: primary human hepatocytes
In short: (§1)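 Cryopreserved primary human hepatocytes from three donors, switched to serum-free medium 2 h before compound addition, were harvested about 18 h after treatment. Poly(A) mRNA was sequenced and aligned to GENCODE release 24, with DESeq2 negative binomial differential expression. Fold change is the treated level over the unperturbed level.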

SERPINC1 = test: RNA-seq of SERPINC1 expression in compound-treated primary human hepatocytes; details: significance FPKM ≥1, log 2(fold change) ≥0.5, q-value ≤0.05
Protocol: Human hepatocytes were obtained from two donors from Massachusetts General Hospital, namely MGH54 and MGH63, and one donor from Lonza, namely HUM4111B. Cryopreserved hepatocytes were cultured in plating media for 16 hours, transferred to maintenance media for 4 hours. Cultured on serum-free media for 2 hours, then a compound was added. The hepatocytes were maintained on the serum-free media for 16 hours prior to gene expression analysis. Primary human hepatocytes were stored in the vapor phase of a liquid nitrogen freezer (about -130° C.). Human hepatocytes cultured as described above were plated in 24-well format, adding 375,000 cells per well in a volume of 500 ul plating medium. Four hours before treatment, cells were washed with PBS and the medium was changed to either: fresh maintenance medium (complete) or modified maintenance medium. Compound stocks were prepared at 1000× final concentration and added in a 2-step dilution to the medium to reduce risk of a compound precipitating out of solution when added to the cells, and to ensure reasonable pipetting volumes. […] The plate was mixed by carefully swirling and after all wells were treated and returned to the incubator overnight. If desired, separate plates/wells were treated with vehicle-only controls and/or positive controls. If using multi-well plates, controls were included on each plate. After about 18 hours, cells were harvested for further analysis, e.g., ChIP-seq, RNA-seq, ATAC-seq, etc. This protocol is a modified version of the following protocols: MagMAX mirVana Total RNA Isolation Kit User Guide (Applied Biosystems #MAN0011131 Rev B.0), NEBNext Poly(A) mRNA Magnetic Isolation Module ([…]), and NEBNext Ultra Directional RNA Library Prep Kit for Illumina ([…]) (New England Biosystems #E74901). […] Two hundred μl of Lysis Binding Mix was used per well of the multiwell plate containing adherent cells (usually a 24-well plate). For mRNA isolation and library prep, the NEBNext Poly(A) mRNA Magnetic Isolation Module and Directional Prep kit was used. RNA isolated from cells above was quantified, and prepared in […] of each sample in 50 μl of nuclease-free water. This protocol may be run in microfuge tubes or in a 96-well plate. […] Genomic alignments were converted to transcriptome alignments based on reference transcript annotations from the Human GENCODE Gene Set release 24 (Harrow et al., Genome Res. […] Using unique and multimapped transcriptomic alignments, gene-level abundance estimates were computed using RSEM version 1.3.0 (Li and Dewey, BMC Bioinformatics (2011) 12:323) in a strand-aware manner, and including confidence interval sampling calculations, to arrive at posterior mean estimates (PME) of abundances (counts and normalized FPKM-fragments per kilobase of exon per million mapped fragments) from the underlying Bayesian model. Standard QC were applied (read integrity, mapping statistics, library complexity, fragment bias) to remove unsatisfactory samples. Differential gene expression was computed using the negative binomial model implemented by DESeq2 version 1.16.1 (Love et al., Genome Biol. (2014) 15(12):550). […] RNA-seq signals were also normalized by read depth and visualized using the UCSC browser. To identify small molecules that modulate target gene expression, primary human hepatocytes were prepared as a monoculture, and at least one small molecule compound was applied to the cells. RNA-seq was performed to determine the effects of the compounds on the expression of the target genes in hepatocytes. Fold change was calculated by dividing the level of expression in the cell system that had been perturbed by the level of expression in an unperturbed system.

JAG1 = test: RNA-seq of JAG1 expression in compound-treated primary human hepatocytes; details: for JAG1 Fold Change (Log2): primary human hepatocytes; for Significant modulation of JAG1 (in words): summary of Table 6
In short: as §1

SMILES	NOTCH2 Fold Change (Log2) (NOTCH2)	SERPINC1 Fold Change (Log2) (SERPINC1)	JAG1 Fold Change (Log2) (JAG1)	Significant modulation of JAG1 (in words) (JAG1)
S=C(NCc1ccc2c(c1)OCO2)N1CCN(c2ncnc3c2oc2ccccc23)CC1 [Amuvatinib]	−0.79	1.33	0.74	significantly modulate only JAG1
O=C1CCC(N2C(=O)c3ccccc3C2=O)C(=O)N1 (centres unmarked) [Thalidomide]	−0.68	0.88	1.30	significantly modulate only JAG1
